The record followed here is ChEMBL document CHEMBL4330125, “Fluoromethylcyclopropylamine derivatives as potential in vivo toxicophores - A cautionary disclosure” (Bioorg Med Chem Lett, 2019).

Settings in all cases: in vivo
A short description of series [1]: Toxicity in CD-1 mouse assessed as ataxia at 5 mg/kg, po administered as single dose via gavage measured after 5 hrs. It is filed as organism-based.
A short description of series [2]: Toxicity in CD-1 mouse at 5 mg/kg, po administered as single dose via gavage. It is filed as organism-based.
Series [3] can be described thus: Toxicity in CD-1 mouse at 160 mg/kg, po administered as single dose via gavage. It is filed as organism-based.
The nature of series [4]: Ratio of fCmax in CD-1 mouse at 10 mg/kg, po to IC50 for PARG in human HeLa cells. The format is ADME, organism-based.
The nature of series [5]: Toxicity in CD-1 mouse assessed as gastrointestinal bleeding at 10 mg/kg, po administered as single dose via gavage measured after 24 hrs. The format is organism-based.
Series [6] can be described thus: Hepatotoxicity in CD-1 mouse assessed as appearance of mottled organ at 10 mg/kg, po administered as single dose via gavage measured after 24 hrs. The format is toxicity, organism-based.
Series [7] is described as follows: Hepatotoxicity in CD-1 mouse assessed as appearance of pale yellow color organ at 10 mg/kg, po administered as single dose via gavage measured after 24 hrs. The format is toxicity, organism-based.

Consider `Cn1cc(Cn2c(=O)c3cc(S(=O)(=O)NC4(CF)CC4)ccc3n(C)c2=O)cn1`, for which, in series [1], the Activity entry was “Toxic”.
As for `Cn1cc(Cn2c(=O)c3cc(S(=O)(=O)NC4(C)CC4)ccc3n(Cc3ccn(C)n3)c2=O)cn1`, the Activity result in series [2] and in series [3] was “Non-Toxic” throughout.
Regarding `CCn1c(=O)n(Cc2cnn(C)c2)c(=O)c2cc(S(=O)(=O)NC3(C)CC3)ccc21`, the results for the Activity result in series [2] and in series [1] were “Non-Toxic” and “Toxic”, respectively.
On to `CCn1c(=O)n(Cc2cnn(C)c2)c(=O)c2cc(S(=O)(=O)NC3(CF)CC3)ccc21`, for which the Activity entry in series [2] is “Non-Toxic”; in series [1], “Toxic”; in series [5], “Toxic”; in series [6], “Toxic”; in series [7], “Toxic”. In addition, the Ratio result in series [4] is on record as “Nd(Toxic)”.
With `CCn1c(=O)n(Cc2cc(C)on2)c(=O)c2cc(S(=O)(=O)NC3(CF)CC3)ccc21`, in series [1], the Activity entry is given as “Toxic”.
Consider `Cn1cc(Cn2c(=O)c3cc(S(=O)(=O)NC4(C)CC4)ccc3n(C)c2=O)cn1`, for which the Activity result in series [2] is “Non-Toxic”; in series [1], “Toxic”.
For the molecule `Cn1cc(Cn2c(=O)c3cc(S(=O)(=O)NC4(CF)CC4)ccc3n(Cc3ccn(C)n3)c2=O)cn1`, in series [2], the Activity result is reported as “Non-Toxic”.
